Results published in PubChem BioAssay AID330 (DTP/NCI, 2004).
Several values for one entry are separate records, joined by “and”; a condition that tells them apart may be missing. Identical values can stand only once. Toxic doses and inconclusive results are not listed. The calls were made as follows: active = survival T/C of 150% or more; inactive = T/C below 125% in these data.

Test system: P388 leukemia ip, CD2F1 mice, survival T/C
Assay: NCI In Vivo Anticancer Drug Screen. Data for tumor model P388 Leukemia (intraperitoneal) in CD2F1 (CDF1) mice
Conditions: endpoint: median survival time, higher = longer survival
Outline: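 Mice carrying the transplanted tumor received test compound or vehicle. Survival was recorded in each group, and the value is the treated-group measurement divided by that of the vehicle-treated control group.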

[1] = dose: 50.0 mg/kg/injection, schedule: Q01DX005 (ip), vehicle: saline with Tween-80
[2] = dose: 100.0 mg/kg/injection, schedule: Q01DX005 (ip), vehicle: saline with Tween-80
[3] = dose: 200.0 mg/kg/injection, schedule: Q01DX005 (ip), vehicle: saline with Tween-80
[4] = dose: 60.0 mg/kg/injection, schedule: Q01DX005 (ip), vehicle: saline with Tween-80
[5] = dose: 120.0 mg/kg/injection, schedule: Q01DX005 (ip), vehicle: saline with Tween-80
[6] = dose: 240.0 mg/kg/injection, schedule: Q01DX005 (ip), vehicle: saline with Tween-80
[7] = dose: 100.0 mg/kg/injection, schedule: Q01DX001 (ip), vehicle: Klucel (hydroxypropylcellulose) (HPC)
[8] = dose: 200.0 mg/kg/injection, schedule: Q01DX001 (ip), vehicle: Klucel (hydroxypropylcellulose) (HPC)
[9] = dose: 100.0 mg/kg/injection, schedule: Q01DX005 (ip), vehicle: Klucel (hydroxypropylcellulose) (HPC)
[10] = dose: 12.5 mg/kg/injection, schedule: Q01DX009 (ip), vehicle: saline with Tween-80
[11] = dose: 25.0 mg/kg/injection, schedule: Q01DX009 (ip), vehicle: saline with Tween-80
[12] = dose: 50.0 mg/kg/injection, schedule: Q01DX009 (ip), vehicle: saline with Tween-80
[13] = dose: 100.0 mg/kg/injection, schedule: Q01DX009 (ip), vehicle: saline with Tween-80

Measured: T/C

N#Cc1c(-c2ccccc2)c(-c2ccccc2)nn(CC(=O)O)c1=O
inactive: dose: 12.5 mg/kg/injection, schedule: Q01DX005 (ip), vehicle: sodium bicarbonate 102 % of control | dose: 25.0 mg/kg/injection, schedule: Q01DX005 (ip), vehicle: sodium bicarbonate 100 % of control | dose: 25.0 mg/kg/injection, schedule: Q04DX002 (ip), vehicle: distilled water + Tween-80 101 % of control | dose: 50.0 mg/kg/injection, schedule: Q01DX005 (ip), vehicle: sodium bicarbonate 101 % of control | dose: 50.0 mg/kg/injection, schedule: Q04DX002 (ip), vehicle: distilled water + Tween-80 100 % of control | dose: 100.0 mg/kg/injection, schedule: Q01DX005 (ip), vehicle: sodium bicarbonate 102 % of control | dose: 100.0 mg/kg/injection, schedule: Q04DX002 (ip), vehicle: distilled water + Tween-80 101 % of control | dose: 200.0 mg/kg/injection, schedule: Q01DX005 (ip), vehicle: sodium bicarbonate 92 % of control | dose: 200.0 mg/kg/injection, schedule: Q04DX002 (ip), vehicle: distilled water + Tween-80 99 % of control

NC(=O)N=Nc1c(F)c(F)c(F)c(F)c1F
inactive: dose: 6.25 mg/kg/injection, schedule: Q01DX005 (ip), vehicle: saline with Tween-80 103 % of control | dose: 12.5 mg/kg/injection, schedule: Q01DX005 (ip), vehicle: saline with Tween-80 106 % of control | dose: 25.0 mg/kg/injection, schedule: Q01DX005 (ip), vehicle: saline with Tween-80 116 % of control | [1] 116 % of control | [2] 113 % of control

CC(C)(CCC(C)(C)NC(=O)C12CC3CC(CC(C3)C1)C2)NC(=O)C12CC3CC(CC(C3)C1)C2
inactive: [1] 90 % of control | [2] 97 % of control | [3] 97 % of control

CC(=O)Nc1ccc(NC(C)=O)c2c1C(=O)c1ccccc1C2=O
inactive: dose: 100.0 mg/kg/injection, schedule: Q04DX003 (ip), vehicle: saline with Tween-80 100 % of control | dose: 200.0 mg/kg/injection, schedule: Q04DX003 (ip), vehicle: saline with Tween-80 100 % of control | dose: 400.0 mg/kg/injection, schedule: Q04DX003 (ip), vehicle: saline with Tween-80 100 % of control

CCOc1ccc(N2C(=O)C(=O)C(C#N)(c3nc4ccccc4o3)C(=O)C2=O)cc1
inactive: [4] 98 % of control | [5] 104 % of control | [6] 105 % of control

c1ccc(C2CO2)cc1 (stereo unspecified)
inactive: [7] 106 % of control | [8] 100 % of control | dose: 400.0 mg/kg/injection, schedule: Q01DX001 (ip), vehicle: Klucel (hydroxypropylcellulose) (HPC) 102 % of control

C/C(=C(/O)c1ccc(Cl)cc1)c1nc2cc(Cl)cc([N+](=O)[O-])c2[nH]c1=O
inactive: dose: 60.0 mg/kg/injection, schedule: Q01DX005 (ip), vehicle: Klucel (hydroxypropylcellulose) (HPC) 100 % of control | dose: 120.0 mg/kg/injection, schedule: Q01DX005 (ip), vehicle: Klucel (hydroxypropylcellulose) (HPC) 107 % of control | dose: 240.0 mg/kg/injection, schedule: Q01DX005 (ip), vehicle: Klucel (hydroxypropylcellulose) (HPC) 111 % of control

CC(C)N1COCO[C@H]2CCC[C@@H]21
inactive: dose: 25.0 mg/kg/injection, schedule: Q01DX005 (ip), vehicle: Klucel (hydroxypropylcellulose) (HPC) 113 % of control | [7] 93 % of control | [9] 113 % of control | [8] 90 % of control

CCOCC(COCC)(COCC)COCC
inactive: [10] 110 % of control | [11] 110 % of control | [12] 119 % of control

Cc1ccc(S)c(C(O)(C(F)(F)F)C(F)(F)F)c1
inactive: dose: 50.0 mg/kg/injection, schedule: Q01DX009 (ip), vehicle: other 100 % of control | dose: 100.0 mg/kg/injection, schedule: Q01DX009 (ip), vehicle: other 100 % of control | dose: 200.0 mg/kg/injection, schedule: Q01DX009 (ip), vehicle: other 100 % of control

COc1cccc(CN2CCCN(/N=C/c3c4c(O)c5c(O)c(C)c6c(c5c3O)C(=O)C(C)(O/C=C/C(OC)C(C)C(OC(C)=O)C(C)C(O)C(C)C(O)C(C)/C=C/C=C(/C)C(=O)N4)O6)CC2)c1 (stereo unspecified)
inactive: [10] 108 % of control | [11] 109 % of control | [12] 103 % of control and 108 % of control | [13] 115 % of control

O=c1ccnc[nH]1
inactive: dose: 100.0 mg/kg/injection, schedule: Q04DX002 (ip), vehicle: saline with Tween-80 105 % of control | dose: 200.0 mg/kg/injection, schedule: Q04DX002 (ip), vehicle: saline with Tween-80 93 % of control

Cc1nc2[nH]cc(C)c2c(=O)[nH]1
inactive: [4] 103 % of control | [5] 97 % of control | [6] 105 % of control

Cc1ccc2c(c1)N(CCSc1ncn[nH]1)C(C)(C)CC2C (stereo unspecified)
inactive: dose: 100.0 mg/kg/injection, schedule: Q04DX002 (ip), vehicle: Klucel (hydroxypropylcellulose) (HPC) 97 % of control | dose: 200.0 mg/kg/injection, schedule: Q04DX002 (ip), vehicle: Klucel (hydroxypropylcellulose) (HPC) 92 % of control | dose: 400.0 mg/kg/injection, schedule: Q04DX002 (ip), vehicle: Klucel (hydroxypropylcellulose) (HPC) 97 % of control

CCOC(=O)Cc1cc(=O)oc2c(CN3CCN(c4ccc(C)cc4)CC3)c(O)ccc12
inactive: [4] 100 % of control | [5] 87 % of control | [6] 99 % of control

CC/C(=C(/CC)c1ccc(O)c(N(CCCl)CCCl)c1)c1ccc(O)c(N(CCCl)CCCl)c1
inactive: dose: 7.5 mg/kg/injection, schedule: Q01DX009 (ip), vehicle: saline 106 % of control | dose: 15.0 mg/kg/injection, schedule: Q01DX009 (ip), vehicle: saline 89 % of control | dose: 30.0 mg/kg/injection, schedule: Q01DX009 (ip), vehicle: saline 105 % of control

O[C@@H]1c2sccc2C2NC21 (stereo partly specified)
inactive: dose: 50.0 mg/kg/injection, schedule: Q01DX001 (ip), vehicle: saline 98 % of control | dose: 100.0 mg/kg/injection, schedule: Q01DX001 (ip), vehicle: saline 95 % of control | dose: 200.0 mg/kg/injection, schedule: Q01DX001 (ip), vehicle: saline 98 % of control

COc1ccc(OCC2=NCCc3ccccc32)cc1
inactive: dose: 50.0 mg/kg/injection, schedule: Q01DX005 (ip), vehicle: Klucel (hydroxypropylcellulose) (HPC) 99 % of control | [9] 107 % of control | dose: 200.0 mg/kg/injection, schedule: Q01DX005 (ip), vehicle: Klucel (hydroxypropylcellulose) (HPC) 109 % of control

CC(=O)/C=C/c1ccc(Cl)c(Cl)c1
inactive: [12] 118 % of control | [13] 111 % of control | dose: 200.0 mg/kg/injection, schedule: Q01DX009 (ip), vehicle: saline with Tween-80 111 % of control

Nc1nc2ccc(CO)nc2c(=O)[nH]1
inactive: [1] 98 % of control | [2] 106 % of control | [3] 101 % of control

CN(C)C1=C(c2ccccc2)C(=O)C(c2ccccc2)=C1c1ccccc1
inactive: dose: 100.0 mg/kg/injection, schedule: Q04DX003 (ip), vehicle: Klucel (hydroxypropylcellulose) (HPC) 106 % of control | dose: 200.0 mg/kg/injection, schedule: Q04DX003 (ip), vehicle: Klucel (hydroxypropylcellulose) (HPC) 109 % of control | dose: 400.0 mg/kg/injection, schedule: Q04DX003 (ip), vehicle: Klucel (hydroxypropylcellulose) (HPC) 109 % of control

C=C1CC2(CCCCC2Cc2ccccc2)OC1=O (stereo unspecified)
inactive: dose: 100.0 mg/kg/injection, schedule: Q04DX002 (ip), vehicle: saline 100 % of control | dose: 200.0 mg/kg/injection, schedule: Q04DX002 (ip), vehicle: saline 101 % of control | dose: 400.0 mg/kg/injection, schedule: Q04DX002 (ip), vehicle: saline 99 % of control

COC1N(C2CC(O)C(CO)O2)C(=O)NC(=O)C1(F)Br (stereo unspecified)
inactive: dose: 178.0 mg/kg/injection, schedule: Q04DX003 (ip), vehicle: saline 118 % of control
